ChEMBL document CHEMBL4396913, “Synthesis and biological evaluation of hybrid quinolone-based quaternary ammonium antibacterial agents” (Eur J Med Chem, 2019)
In brackets after ≈: the same amount, converted by molar mass. Activity calls are given as the source filed them. The rule behind the calls is not given here.

How the values were obtained:
[1] = test system: Staphylococcus aureus; assay: Antibacterial activity against Staphylococcus aureus ATCC 6538 cultured in MH medium assessed as reduction in bacterial growth incubated for 48 hrs by microbroth dilution method; format: functional; conditions: ATCC 6538, 48 h
[2] = test system: Staphylococcus aureus; assay: Bactericidal activity against Staphylococcus aureus ATCC 6538 cultured in MH medium assessed as reduction in bacterial survival incubated for 48 hrs by microbroth dilution method; format: functional; conditions: ATCC 6538, 48 h
[3] = test system: Staphylococcus aureus; assay: Antibacterial activity against methicillin resistant Staphylococcus aureus N315 cultured in MH medium assessed as reduction in bacterial growth incubated for 48 hrs by microbroth dilution method; format: functional; conditions: N315, 48 h
[4] = test system: Staphylococcus epidermidis; assay: Antibacterial activity against Staphylococcus epidermidis ATCC 14990 cultured in MH medium assessed as reduction in bacterial growth incubated for 48 hrs by microbroth dilution method; format: functional; conditions: ATCC 14990, 48 h
[5] = test system: Staphylococcus epidermidis; assay: Bactericidal activity against Staphylococcus epidermidis ATCC 14990 cultured in MH medium assessed as reduction in bacterial survival incubated for 48 hrs by microbroth dilution method; format: functional; conditions: ATCC 14990, 48 h
[6] = test system: Enterococcus hirae; assay: Antibacterial activity against Enterococcus hirae ATCC 1052 cultured in BHI medium assessed as reduction in bacterial growth incubated for 48 hrs by microbroth dilution method; format: functional; conditions: ATCC 1052, 48 h
[7] = test system: Enterococcus hirae; assay: Bactericidal activity against Enterococcus hirae ATCC 1052 cultured in BHI medium assessed as reduction in bacterial survival incubated for 48 hrs by microbroth dilution method; format: functional; conditions: ATCC 1052, 48 h
[8] = test system: Bacillus spizizenii; assay: Antibacterial activity against Bacillus subtilis ATCC 6633 cultured in MH medium assessed as reduction in bacterial growth incubated for 48 hrs by microbroth dilution method; format: functional; conditions: ATCC 6633, 48 h
[9] = test system: Bacillus spizizenii; assay: Bactericidal activity against Bacillus subtilis ATCC 6633 cultured in MH medium assessed as reduction in bacterial survival incubated for 48 hrs by microbroth dilution method; format: functional; conditions: ATCC 6633, 48 h
[10] = test system: Escherichia coli; assay: Antibacterial activity against Escherichia coli ATCC 8739 cultured in MH medium assessed as reduction in bacterial growth incubated for 48 hrs by microbroth dilution method; format: functional; conditions: ATCC 8739, 48 h
[11] = test system: Escherichia coli; assay: Bactericidal activity against Escherichia coli ATCC 8739 cultured in MH medium assessed as reduction in bacterial survival incubated for 48 hrs by microbroth dilution method; format: functional; conditions: ATCC 8739, 48 h
[12] = test system: Pseudomonas aeruginosa; assay: Bactericidal activity against Pseudomonas aeruginosa ATCC 9027 cultured in MH medium assessed as reduction in bacterial survival incubated for 48 hrs by microbroth dilution method; format: functional; conditions: ATCC 9027, 48 h
[13] = test system: Proteus vulgaris; assay: Antibacterial activity against Proteus vulgaris NCTC 4635 cultured in MH medium assessed as reduction in bacterial growth incubated for 48 hrs by microbroth dilution method; format: functional; conditions: NCTC 4635, 48 h
[14] = test system: Proteus vulgaris; assay: Bactericidal activity against Proteus vulgaris NCTC 4635 cultured in MH medium assessed as reduction in bacterial survival incubated for 48 hrs by microbroth dilution method; format: functional; conditions: NCTC 4635, 48 h
[15] = test system: Staphylococcus aureus; assay: Antibacterial activity against methicillin resistant Staphylococcus aureus 6347 cultured in MH medium assessed as reduction in bacterial growth incubated for 48 hrs by microbroth dilution method; format: functional; conditions: Staphylococcus aureus, 6347, 48 h
[16] = test system: Staphylococcus aureus; assay: Bactericidal activity against methicillin resistant Staphylococcus aureus 6347 cultured in MH medium assessed as reduction in bacterial survival incubated for 48 hrs by microbroth dilution method; format: functional; conditions: Staphylococcus aureus, 6347, 48 h
[17] = test system: Streptococcus pneumoniae; assay: Antibacterial activity against Streptococcus pneumoniae cultured in MH medium assessed as reduction in bacterial growth incubated for 48 hrs by microbroth dilution method; format: functional
[18] = test system: Streptococcus pneumoniae; assay: Bactericidal activity against Streptococcus pneumoniae cultured in MH medium assessed as reduction in bacterial survival incubated for 48 hrs by microbroth dilution method; format: functional
[19] = test system: Serratia marcescens; assay: Antibacterial activity against Serratia marcescens ATCC 12795 cultured in MH medium assessed as reduction in bacterial growth incubated for 48 hrs by microbroth dilution method; format: functional; conditions: ATCC 12795, 48 h
[20] = test system: Serratia marcescens; assay: Bactericidal activity against Serratia marcescens ATCC 12795 cultured in MH medium assessed as reduction in bacterial survival incubated for 48 hrs by microbroth dilution method; format: functional; conditions: ATCC 12795, 48 h
[21] = molecular target: DNA gyrase (Escherichia coli) (UniProt P0AES6+P0AES4); assay: Inhibition of Escherichia coli DNA gyrase super-coiling activity using relaxed pNO1 DNA as substrate assessed as enzyme residual activity at 1 uM incubated for 30 mins by fluorescence assay relative to control; format: protein-complex assay
[22] = test system: Escherichia coli; assay: Induction of inner membrane permeabilization in Escherichia coli ATCC 8739 assessed as increase in release of cytoplasmic beta galactosidase using ONPG as substrate at 128 ug/ml incubated for 90 mins compound added with bacterial cells after lag time of about 10 mins by spectrophotometry; format: organism-based
[23] = test system: Pseudomonas aeruginosa; assay: Antibiofilm activity against Pseudomonas aeruginosa ATCC 9027 assessed as biofilm formation at antibacterial MIC incubated for 24 hrs compound added prior to bacterial biofilm formation by total biomass crystal violet staining-based method relative to control; format: functional
[24] = test system: Staphylococcus aureus; assay: Antibiofilm activity against Staphylococcus aureus ATCC 6538 assessed as biofilm formation at antibacterial MIC incubated for 24 hrs compound added prior to bacterial biofilm formation by total biomass crystal violet staining-based method relative to control; format: functional
[25] = test system: Pseudomonas aeruginosa; assay: Antibiofilm activity against Pseudomonas aeruginosa ATCC 9027 assessed as biofilm formation at 0.5 times antibacterial MIC incubated for 24 hrs compound added prior to bacterial biofilm formation by total biomass crystal violet staining-based method relative to control; format: functional
[26] = test system: Staphylococcus aureus; assay: Antibiofilm activity against Staphylococcus aureus ATCC 6538 assessed as biofilm formation at 0.5 times antibacterial MIC incubated for 24 hrs compound added prior to bacterial biofilm formation by total biomass crystal violet staining-based method relative to control; format: functional
[27] = test system: Pseudomonas aeruginosa; assay: Biofilm degradation activity against Pseudomonas aeruginosa ATCC 9027 assessed as biofilm formation at antibacterial MIC incubated for 24 hrs compound added post-biofilm formation by total biomass crystal violet staining-based method; format: functional
[28] = test system: Pseudomonas aeruginosa; assay: Biofilm degradation activity against Pseudomonas aeruginosa ATCC 9027 assessed as biofilm formation at 2 times antibacterial MIC incubated for 24 hrs compound added post-biofilm formation by total biomass crystal violet staining-based method; format: functional
[29] = test system: Pseudomonas aeruginosa; assay: Biofilm degradation activity against Pseudomonas aeruginosa ATCC 9027 assessed as biofilm formation at 4 times antibacterial MIC incubated for 24 hrs compound added post-biofilm formation by total biomass crystal violet staining-based method; format: functional
[30] = test system: Staphylococcus aureus; assay: Biofilm degradation activity against Staphylococcus aureus ATCC 6538 assessed as biofilm formation at antibacterial MIC incubated for 24 hrs compound added post-biofilm formation by total biomass crystal violet staining-based method; format: functional
[31] = test system: Staphylococcus aureus; assay: Biofilm degradation activity against Staphylococcus aureus ATCC 6538 assessed as biofilm formation at 2 times antibacterial MIC incubated for 24 hrs compound added post-biofilm formation by total biomass crystal violet staining-based method; format: functional
[32] = test system: Staphylococcus aureus; assay: Biofilm degradation activity against Staphylococcus aureus ATCC 6538 assessed as biofilm formation at 4 times antibacterial MIC incubated for 24 hrs compound added post-biofilm formation by total biomass crystal violet staining-based method; format: functional
[33] = test system: Staphylococcus aureus; conditions: ATCC 25923, 10 to 40 uM
Description: Antibiofilm activity Staphylococcus aureus ATCC 25923 pre-formed mature biofilm assessed as reduction in biofilm viability at 10 to 40 uM incubated for 24 hrs compound added post-biofilm formation by resazurin staining based assay relative to control

[34] = test system: Staphylococcus aureus; conditions: ATCC 25923, 10 to 40 uM; remark: listed apart in the source
Description: Antibiofilm activity Staphylococcus aureus ATCC 25923 pre-formed mature biofilm assessed as reduction in biofilm biomass at 10 to 40 uM incubated for 24 hrs compound added post biofilm formation by crystal violet staining based assay relative to control

O=C(O)c1cn(C2CC2)c2cc(N3CCNCC3)c(F)cc2c1=O [CIPROFLOXACIN] gave an MIC [1] of 0.25 µg/mL (≈ 0.754 µM), an MBC [2] of 0.5 µg/mL (≈ 1.51 µM) and an MIC [3] of 1 µg/mL (≈ 3.02 µM). The MIC [4] was 0.25 µg/mL (≈ 0.754 µM), the MBC [5] was 0.25 µg/mL (≈ 0.754 µM) and the MIC [6] was 128 µg/mL (≈ 386 µM). The MBC [7] was 128 µg/mL (≈ 386 µM), the MIC [8] was 0.032 µg/mL (≈ 0.0966 µM) and the MBC [9] was 0.063 µg/mL (≈ 0.19 µM). It also gave an MIC [10] of 0.032 µg/mL (≈ 0.0966 µM), an MBC [11] of 0.032 µg/mL (≈ 0.0966 µM) and an MBC [12] of 0.5 µg/mL (≈ 1.51 µM). It also gave an MIC [13] of 0.008 µg/mL (≈ 0.0241 µM), an MBC [14] of 0.008 µg/mL (≈ 0.0241 µM) and an MIC [15] of 0.25 µg/mL (≈ 0.754 µM). The MBC [16] was 0.5 µg/mL (≈ 1.51 µM), the MIC [17] was 8 µg/mL (≈ 24.1 µM) and the MBC [18] was > 512 µg/mL. It also gave an MIC [19] of 0.125 µg/mL (≈ 0.377 µM), an MBC [20] of 0.125 µg/mL (≈ 0.377 µM) and an Activity [21] of 7%. The Activity [22] was “Active”, the Activity [23] was 3% and the Activity [24] was 3%. The Activity [25] was 7%, the Activity [26] was 5% and the Activity [27] was 76%. It also gave an Activity [28] of 72%, an Activity [29] of 64% and an Activity [30] of 21%. The Activity [31] was 17%, the Activity [32] was 31% and the inhibition [33] was “Active”. For the same compound, the inhibition [34] was “Active”.
